From ChEMBL document CHEMBL5523725, “Fragment-Based Anti-inflammatory Agent Design and Target Identification: Discovery of AF-45 as an IRAK4 Inhibitor to Treat Ulcerative Colitis and Acute Lung Injury” (J Med Chem, 2024)
Activity calls are given as the source filed them. No cut-off for these calls is given here.

Tests used:
[1] = target: Interleukin-1 receptor-associated kinase 1 (Homo sapiens, UniProt P51617); assay: Inhibition of IRAK1 (unknown origin)
[2] = test system: Mus musculus; assay: Antiinflammatory activity in LPS induced C57BL/6 mouse model of acute lung injury assessed as reduction in macrophage infiltration in lung at 20 to 40 mg/kg, ip preadministered for 30 mins followed by LPS administration and measured after 6 hrs by F4/80 labeling based immunohistochemical analysis; format: functional, organism-based; settings: dose 20-40 mg/kg, time 6.5 hrs
[3] = Stability of compound in rat plasma at 10 mg/ml incubated for 8 hrs and measured every 2 hrs hy HPLC analysis; format: ADME, cell-free
[4] = target: T1, Inhibitor of nuclear factor kappa-B kinase subunit beta (Homo sapiens) (UniProt O14920); assay: Inhibition of IKKbeta (unknown origin) at 10 uM relative to control
T1 sequence (whole entry): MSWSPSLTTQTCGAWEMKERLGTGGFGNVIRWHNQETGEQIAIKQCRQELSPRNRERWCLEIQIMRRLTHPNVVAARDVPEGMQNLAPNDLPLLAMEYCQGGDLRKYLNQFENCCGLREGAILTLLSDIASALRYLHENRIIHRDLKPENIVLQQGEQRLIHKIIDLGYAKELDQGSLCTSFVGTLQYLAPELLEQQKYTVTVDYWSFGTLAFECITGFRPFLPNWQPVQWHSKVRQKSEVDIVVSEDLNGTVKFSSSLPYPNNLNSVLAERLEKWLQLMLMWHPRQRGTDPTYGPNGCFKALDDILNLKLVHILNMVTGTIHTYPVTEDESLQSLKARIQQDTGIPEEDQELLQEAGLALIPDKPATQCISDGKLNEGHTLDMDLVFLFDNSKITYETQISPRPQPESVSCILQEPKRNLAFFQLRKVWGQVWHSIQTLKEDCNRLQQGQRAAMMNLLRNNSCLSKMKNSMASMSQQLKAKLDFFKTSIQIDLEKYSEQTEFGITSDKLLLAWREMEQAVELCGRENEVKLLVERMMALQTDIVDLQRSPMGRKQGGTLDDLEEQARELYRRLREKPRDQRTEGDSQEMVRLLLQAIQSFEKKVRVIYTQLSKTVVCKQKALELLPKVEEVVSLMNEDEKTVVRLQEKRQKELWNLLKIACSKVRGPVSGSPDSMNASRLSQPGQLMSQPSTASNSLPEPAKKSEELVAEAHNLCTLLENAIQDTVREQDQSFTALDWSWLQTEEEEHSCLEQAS

[5] = test system: Mus musculus; assay: Antiinflammatory activity in male C57BL/6 mouse model of DSS-induced ulcerative colitis assessed as increase in body weight at 20 mg/kg, po administered for 11 days with subsequent administration of DSS for 8 days and measured on day 11; format: functional, organism-based; settings: time 11.0 day
[6] = test system: RAW264.7; assay: Inhibition of NFkappaB signaling pathway in LPS-induced mouse RAW264.7 cells assessed as inhibition of p65 phosphorylation by Western blot analysis; format: cell-based; settings: dose 2.5-10 µM
[7] = test system: RAW264.7; assay: Inhibition of NFkappaB signaling pathway in LPS-induced mouse RAW264.7 cells assessed as inhibition of p65 entry into nucleus pretreated for 2 hrs followed by LPS stimulation and measured after 15 mins by immunofluorescence staining based analysis; format: cell-based; settings: time 135.0 min
[8] = Stability of compound in enzyme free simulated intestinal fluid at 10 mg/ml incubated for 8 hrs and measured every 2 hrs hy HPLC analysis; format: ADME; settings: simulated gi fluid
[9] = test system: RAW264.7; assay: Inhibition of NFkappaB/MAPK signaling pathway in mouse RAW264.7 cells assessed as reduction in LPS-induced p65 phosphorylation at 50 uM by Western blot analysis; format: cell-based
[10] = Stability of compound in simulated gastric fluid at 10 mg/ml incubated for 8 hrs and measured every 2 hrs hy HPLC analysis; format: ADME; settings: simulated gi fluid
[11] = test system: Mus musculus; assay: Antiinflammatory activity in LPS induced C57BL/6 mouse model of acute lung injury assessed as reduction in spleen over activation at 20 to 40 mg/kg, ip preadministered for 30 mins followed by LPS administration and measured after 6 hrs by H and E staining based analysis; format: functional, organism-based; settings: dose 20-40 mg/kg, time 6.5 hrs
[12] = AUC (0 to t) in male Sprague-Dawley rat at 1 mg/kg, iv administered via tail vein and measured upto 24 hrs; format: ADME, organism-based; settings: in vivo
[13] = test system: RAW264.7; assay: Inhibition of NFkappaB/MAPK signaling pathway in mouse RAW264.7 cells assessed as reduction in LPS-induced JNK phosphorylation at 50 uM by Western blot analysis; format: cell-based
[14] = test system: Mus musculus; assay: Anti-colitis activity in male C57BL/6 mouse model of DSS-induced ulcerative colitis assessed as colon length at 20 mg/kg, po administered for 11 days with subsequent administration of DSS for 8 days (reference value: 5.2 cm); format: functional; settings: time 11 day
[15] = Drug uptake in male Sprague-Dawley rat blood at 1 mg/kg, iv administered via tail vein and measured after 24 hrs; format: ADME, organism-based; settings: in vivo
[16] = test system: THP-1; assay: cells; settings: Homo sapiens
Description: Antiinflammatory activity in LPS-induced human THP-1 cells assessed as inhibition of IL-6 release pretreated for 30 mins followed by LPS stimulation and measured after 24 hrs by ELISA

[17] = test system: Mus musculus; assay: Antiinflammatory activity in male C57BL/6 mouse model of DSS-induced ulcerative colitis assessed as restoration of protein status at 10 to 20 mg/kg, po administered for 11 days with subsequent administration of DSS for 8 days by H and E staining based analysis; format: functional, organism-based; settings: dose 10-20 mg/kg, time 11.0 day
[18] = test system: Mus musculus; assay: Antiinflammatory activity in male C57BL/6 mouse model of DSS-induced ulcerative colitis assessed as reduction in DAI score at 20 mg/kg, po administered for 11 days with subsequent administration of DSS for 8 days; format: functional, organism-based; settings: time 11.0 day
[19] = test system: Mus musculus; assay: Antiinflammatory activity in LPS induced C57BL/6 mouse model of acute lung injury assessed as reduction in number of macrophages in spleen at 20 to 40 mg/kg, ip preadministered for 30 mins followed by LPS administration and measured after 6 hrs by F4/80 labeling based immunohistochemical analysis; format: functional, organism-based; settings: dose 20-40 mg/kg, time 6.5 hrs
[20] = Oral bioavailability in male Sprague-Dawley rat at 10 mg/kg measured upto 24 hrs; format: ADME, organism-based; settings: in vivo
[21] = test system: RAW264.7; assay: Inhibition of NFkappaB signaling pathway in LPS-induced mouse RAW264.7 cells assessed as inhibition of IkappaBalpha degradation by Western blot analysis; format: cell-based; settings: dose 2.5-10 µM
[22] = test system: Mus musculus; assay: Antiinflammatory activity in male C57BL/6 mouse model of DSS-induced ulcerative colitis assessed as reversal of ruptured spleen at 10 to 20 mg/kg, po administered for 11 days with subsequent administration of DSS for 8 days by H and E staining based analysis; format: functional, organism-based; settings: dose 10-20 mg/kg, time 11.0 day
[23] = test system: Mus musculus; assay: Antiinflammatory activity in LPS induced ip dosed C57BL/6 mouse model of acute lung injury assessed as reduction in […] of lung preadministered for 30 mins followed by LPS administration and measured after 6 hrs; format: functional, organism-based; settings: dose 20-40 mg/kg, time 6.5 hrs
[24] = test system: THP-1; assay: cells; settings: Homo sapiens; remark: listed apart in the source
Description: Antiinflammatory activity in LPS-induced human THP-1 cells assessed as inhibition of TNF-alpha release pretreated for 30 mins followed by LPS stimulation and measured after 24 hrs by ELISA

[25] = target: Aurora kinase B (Homo sapiens) (UniProt Q96GD4); assay: Inhibition of human AurB assessed as residual activity at 10 uM by Eurofins kinase profiler method relative to control
Aurora kinase B (Homo sapiens), sequence (Q96GD4 whole entry): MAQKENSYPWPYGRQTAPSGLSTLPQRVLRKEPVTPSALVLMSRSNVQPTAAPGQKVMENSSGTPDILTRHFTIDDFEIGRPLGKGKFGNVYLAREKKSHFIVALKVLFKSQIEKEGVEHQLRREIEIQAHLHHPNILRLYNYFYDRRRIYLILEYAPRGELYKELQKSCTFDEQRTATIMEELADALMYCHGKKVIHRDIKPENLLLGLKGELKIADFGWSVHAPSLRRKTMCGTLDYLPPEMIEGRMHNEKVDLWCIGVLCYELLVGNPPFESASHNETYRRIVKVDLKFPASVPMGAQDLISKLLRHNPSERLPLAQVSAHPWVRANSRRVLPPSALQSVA

Interleukin-1 receptor-associated kinase 1, sequence (P51617 whole entry): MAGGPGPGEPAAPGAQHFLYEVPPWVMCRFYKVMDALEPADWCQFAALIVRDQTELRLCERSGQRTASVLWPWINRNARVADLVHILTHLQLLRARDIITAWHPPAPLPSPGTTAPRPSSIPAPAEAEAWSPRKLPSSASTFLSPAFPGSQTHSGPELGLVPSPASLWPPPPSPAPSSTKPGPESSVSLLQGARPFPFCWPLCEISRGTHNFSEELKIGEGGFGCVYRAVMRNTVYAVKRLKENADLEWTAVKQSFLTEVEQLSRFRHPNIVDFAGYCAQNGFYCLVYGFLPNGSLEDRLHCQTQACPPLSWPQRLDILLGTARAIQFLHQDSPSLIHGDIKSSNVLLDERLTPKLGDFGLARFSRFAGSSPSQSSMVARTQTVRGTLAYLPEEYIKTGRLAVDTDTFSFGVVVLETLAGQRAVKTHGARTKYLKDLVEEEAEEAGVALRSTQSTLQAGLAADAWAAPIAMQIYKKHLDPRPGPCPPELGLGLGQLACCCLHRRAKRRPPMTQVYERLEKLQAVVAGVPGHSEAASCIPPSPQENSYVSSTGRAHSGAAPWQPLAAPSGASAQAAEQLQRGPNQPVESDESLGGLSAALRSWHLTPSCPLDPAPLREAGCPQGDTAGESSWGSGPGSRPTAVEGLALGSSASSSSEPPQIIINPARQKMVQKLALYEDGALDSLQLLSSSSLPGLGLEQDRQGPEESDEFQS

In the case of `COc1cc2c(O[C@H]3CC[C@@H](N)CC3)ncnc2cc1OCc1ccccc1`, the IC50 [1] is reported as 1770 nM, the Activity [2] is reported as “Active” and the Stability [3] is reported as “Stable”. For the same molecule, the inhibition [4] was -1.64%, the Activity [5] was “Active” and the inhibition [6] was “Dose-Dependent Effect”. For the same molecule, the inhibition [7] was “Active”, the Stability [8] was “Stable” and the inhibition [9] was “Active”. For the same molecule, the Stability [10] was “Stable”, the Activity [11] was “Active” and the AUC(0-t) at 24 h [12] was 3800 ng·h/mL. For the same molecule, the inhibition [13] was “Active”, the Activity [14] was 6.2 cm and the Drug uptake [15] was “Active”. For the same molecule, the IC50 [16] was 530 nM, the Activity [17] was “Active” and the Activity [18] was “Active”. For the same molecule, the Activity [19] was “Active”, the bioavailability [20] was 28.1% and the inhibition [21] was “Dose-Dependent Effect”. The Activity [22] was “Active”, the Activity [23] was “Dose-Dependent Effect” and the IC50 [24] was 600 nM. For the same molecule, the Activity [25] was 70%.
